# Laboratory results as given in patent US20100113334A1, “METHODS FOR REDUCING OR PREVENTING TRANSMISSION OF NOSOCOMIAL PATHOGENS IN A HEALTH CARE FACILITY” (priority 2003, published 2010).
# Assays:
# [1] = tested on: clinical isolate VanA strain of E. faecium (VRE); test: VRE suppression in a mouse model (Example 1); format: in vivo, mice
# Excerpt: (§1) Mice were colonized with a clinical isolate VanA strain of E. faecium (VRE) isolated from a septicemic patient. A single inoculation of 5×10^8 cfu VRE by oral gavage (Day 0) was followed by treatment with vancomycin in the drinking water to maintain colonization. On day 22, each group received the same vancomycin-containing drinking water. […] The control group consisted of five mice, while the ramoplanin group consisted of four mice.
# Total Enterococci = test: VRE suppression in a mouse model (Example 1), total enterococci in faeces; format: in vivo, mice
# Excerpt: as §1
# [2] = tested on: indigenous stool microflora; test: DGGE of PCR-amplified bacterial ribosomal RNA genes from stool (Example 3); format: in vivo, mice; conditions: subcutaneous clindamycin
# Candida glabrata A239 = test: Minimum-inhibitory concentration for Candida glabrata A239; format: cell-based; conditions: clinical isolate A239
# Method: Pathogens Studied: E. faecium C68, a previously described VanB-type clinical VRE isolate, was used for the following murine VRE experiments (Donskey et al., J. Microbial. Meth. 1807: 1-8, 2003). […] Klebsiella pneumoniae P62 is a clinical isolate that produces an SHV type extended-spectrum β-lactamase (ESBL). Candida glabrata A239 is a clinical isolate with a fluconazole minimum-inhibitory concentration of 2 μg/mL.
# [3] = Day 22, prior to ramoplanin therapy
# [4] = Day 29, completion of ramoplanin therapy
# [5] = Day 36, 7 days after completion of ramoplanin therapy
compound,measurement,setting,value
CN[C@H](CC(C)C)C(=O)N[C@H]1C(=O)N[C@@H](CC(N)=O)C(=O)N[C@H]2C(=O)N[C@H]3C(=O)N[C@H](C(=O)N[C@H](C(=O)O)c4cc(O)cc(O)c4-c4cc3ccc4O)[C@H](O)c3ccc(c(Cl)c3)Oc3cc2cc(c3O[C@@H]2O[C@H](CO)[C@@H](O)[C@H](O)[C@H]2O[C@H]2C[C@](C)(N)[C@H](O)[C@H](C)O2)Oc2ccc(cc2Cl)[C@H]1O [vancomycin],Enterococci: VRE,[1]; [3],9.7 log 10 cfu/g faeces
same,Enterococci: VRE,[1]; [4],9.4 log 10 cfu/g faeces
same,% Mice with VRE,"[1]; Day 29, completion of ramoplanin therapy (15 mg/kg/day in drinking water, with 25 mg/kg/day vancomycin)",100%
same,% Mice with VRE,[1]; [5],100%
same,Enterococci: VRE,[1]; [5],9.3 log 10 cfu/g faeces
same,Enterococci: Total Enterococci,Total Enterococci; [3],9.6 log 10 cfu/g faeces
same,Enterococci: Total Enterococci,Total Enterococci; [4],9.3 log 10 cfu/g faeces
same,Enterococci: Total Enterococci,Total Enterococci; [5],9.6 log 10 cfu/g faeces
CCC[C@@H]1C[C@@H](C(=O)N[C@@H]([C@H]2O[C@H](SC)[C@H](O)[C@@H](O)[C@H]2O)[C@H](C)Cl)N(C)C1 [clindamycin],"stool DGGE patterns, mean similarity indices in comparison to pre-treatment patterns",[2],17%
OC(Cn1cncn1)(Cn1cncn1)c1ccc(F)cc1F [fluconazole],minimum-inhibitory concentration,Candida glabrata A239,2 µg/mL
